Results reported in ChEMBL document CHEMBL1143903, “Synthesis of novel spiropyrrolizidines as potent antimicrobial agents for human and plant pathogens” (2008).
In brackets after ≈: the same amount, converted by molar mass.

Assays:
[1] = system: Proteus mirabilis; test: Antibacterial activity against Proteus mirabilis by well diffusion method; format: functional
[2] = system: Salmonella typhi; test: Antibacterial activity against Salmonella typhi by well diffusion method; format: functional, Salmonella enterica subsp. enterica serovar Typhi; conditions: Salmonella enterica
[3] = system: Fusarium oxysporum; test: Antifungal activity against Fusarium oxysporum by poison food technique; format: functional
[4] = system: Macrophomina phaseolina; test: Antifungal activity against Macrophomina phaseolina by poison food technique; format: functional
[5] = system: Proteus vulgaris; test: Antibacterial activity against Proteus vulgaris by well diffusion method; format: functional
[6] = system: Staphylococcus aureus; test: Antibacterial activity against Staphylococcus aureus by well diffusion method; format: functional

With O=C1C2Nc3ccccc3C2CC[C@@]12[C@@H](c1ccccc1)C1CCCN1[C@@]21C(=O)Nc2ccccc21 (some centres not stated) the MIC [1] was 55 µg/mL (≈ 116 µM), the MIC [2] was 20 µg/mL (≈ 42.1 µM) and the MIC [3] was 125 µg/mL (≈ 263 µM). It also gave an MIC [4] of 50 µg/mL (≈ 105 µM) and an MIC [5] of 30 µg/mL (≈ 63.1 µM).
COC(=O)Nc1nc2ccccc2[nH]1 [CARBENDAZIM] gave an MIC [3] of 18 µg/mL (≈ 94.1 µM) and an MIC [4] of 15 µg/mL (≈ 78.5 µM).
COc1ccc([C@H]2C3CCCN3[C@@]3(C(=O)Nc4ccccc43)[C@]23CCC2c4ccccc4NC2C3=O)cc1 (some centres not stated) showed an MIC [6] of 40 µg/mL (≈ 79.1 µM), an MIC [1] of 25 µg/mL (≈ 49.4 µM) and an MIC [2] of 45 µg/mL (≈ 89 µM). For the same molecule, the MIC [3] was 75 µg/mL (≈ 148 µM), the MIC [4] was 25 µg/mL (≈ 49.4 µM) and the MIC [5] was 15 µg/mL (≈ 29.7 µM).
CN(C)[C@@H]1C(O)=C(C(N)=O)C(=O)[C@@]2(O)C(O)=C3C(=O)c4c(O)cccc4[C@@](C)(O)[C@H]3C[C@@H]12 [TETRACYCLINE] gave an MIC [6] of 10 µg/mL (≈ 22.5 µM), an MIC [1] of 20 µg/mL (≈ 45 µM) and an MIC [2] of 15 µg/mL (≈ 33.8 µM). For the same molecule, the MIC [5] was 15 µg/mL (≈ 33.8 µM).
Molecule O=C1C2Nc3ccccc3C2CC[C@@]12[C@@H](c1ccc(Br)cc1)C1CCCN1[C@@]21C(=O)Nc2ccccc21 (some centres not stated) has an MIC [6] of 45 µg/mL (≈ 81.2 µM), an MIC [1] of 30 µg/mL (≈ 54.1 µM) and an MIC [2] of 30 µg/mL (≈ 54.1 µM). The MIC [3] was 50 µg/mL (≈ 90.2 µM), the MIC [4] was 25 µg/mL (≈ 45.1 µM) and the MIC [5] was 25 µg/mL (≈ 45.1 µM).
Cc1ccc([C@H]2C3CCCN3[C@@]3(C(=O)Nc4ccccc43)[C@]23CCC2c4ccccc4NC2C3=O)cc1 (some centres not stated) gave an MIC [6] of 45 µg/mL (≈ 91.9 µM), an MIC [1] of 65 µg/mL (≈ 133 µM) and an MIC [2] of 35 µg/mL (≈ 71.5 µM). The MIC [3] was 75 µg/mL (≈ 153 µM), the MIC [4] was 50 µg/mL (≈ 102 µM) and the MIC [5] was 40 µg/mL (≈ 81.7 µM).
With O=C1C2Nc3ccccc3C2CC[C@@]12[C@@H](c1ccc([N+](=O)[O-])cc1)C1CCCN1[C@@]21C(=O)Nc2ccccc21 (some centres not stated) the MIC [6] was 25 µg/mL (≈ 48 µM), the MIC [1] was 55 µg/mL (≈ 106 µM) and the MIC [2] was 40 µg/mL (≈ 76.8 µM). For the same molecule, the MIC [3] was 75 µg/mL (≈ 144 µM), the MIC [4] was 100 µg/mL (≈ 192 µM) and the MIC [5] was 35 µg/mL (≈ 67.2 µM).
For O=C1C2Nc3ccccc3C2CC[C@@]12[C@@H](c1ccc(Cl)cc1)C1CCCN1[C@@]21C(=O)Nc2ccccc21 (some centres not stated), the MIC [6] was 20 µg/mL (≈ 39.2 µM), the MIC [1] was 35 µg/mL (≈ 68.6 µM) and the MIC [2] was 30 µg/mL (≈ 58.8 µM). The MIC [3] was 125 µg/mL (≈ 245 µM), the MIC [4] was 75 µg/mL (≈ 147 µM) and the MIC [5] was 10 µg/mL (≈ 19.6 µM).
Work on CN(C)c1ccc([C@H]2C3CCCN3[C@@]3(C(=O)Nc4ccccc43)[C@]23CCC2c4ccccc4NC2C3=O)cc1 (some centres not stated) yielded an MIC [6] of 35 µg/mL (≈ 67.5 µM), an MIC [1] of 50 µg/mL (≈ 96.4 µM) and an MIC [2] of 35 µg/mL (≈ 67.5 µM). The MIC [3] was 150 µg/mL (≈ 289 µM), the MIC [4] was 75 µg/mL (≈ 145 µM) and the MIC [5] was 45 µg/mL (≈ 86.8 µM).
